Values quoted from earlier work in publication PMC3758109 (ChemistryOpen, 2012).

Settings: humans, intravenous bolus injection

Substance: inulin
- fraction cleared in fast phase: 76%
- fraction cleared in slow phase: 24%
- half-life of fast phase: 10 min
- half-life of slow phase: 86 min
